Reference: patent US12318452B2, “Degraders of WEE1 kinase” (DANA-FARBER CANCER INSTITUTE, INC., priority 2018, dated 2025)

Tests used:
[1] = tested on: MOLT4 cells (parental, wild type); test: CellTiter-Glo cell viability, 72 hours; type: cell-based; conditions: Homo sapiens, MOLT-4, 72 hours, read-out: Antiproliferative IC50
Protocol: The indicated cell lines were plated in flat bottom 384-well plates (Corning® cat #3570). MOLT4 cells were plated at a density of 3,000 cells per well in 50 μL media, while OVCAR8, COV362, and Kuramochi cells were plated at a density of 750 cells per well in 50 μL media. Cells were treated the next day (except for MOLT4 cells, which were treated the same day as plating) with 0.1 μL of the indicated compounds in a four-fold dilution series using the Janus pinner. Cells were incubated with compounds for 72 hours at 37° C. 5% CO2. Anti-proliferative effects were then assessed by CellTiter-Glo® Luminescent Cell Viability Assay (Promega™ cat #G7570) according to the manufacturer's standards, measuring luminescence using an EnVision® plate-reader. IC50 values were determined using a non-linear regression curve fit in GraphPad Prism 8. N=4 biological replicates were used for each treatment condition.
MOLT4 cells were plated in a 384-well plate at 5,000 cells per well in 50 μL media (RPMI+10% FBS+1% Penn/Strep) and treated with 0.1 μL of the candidate compounds in four-fold dilution series using the Janus pinner. Cells were incubated with compounds for 72 hours at 37° C. 5% CO2. Anti-proliferative effects of these compounds were assessed 72 hours after compound addition using CellTiter-Glo® (Promega, cat #G7571). All proliferation assays were performed in biological quadruplicate. […] Effects upon cell viability for compound 13 in the MOLT4 WT cells are therefore likely driven in part by Wee1 inhibition, and in part by CRBN-mediated Wee1 degradation. […] Degradation of Wee1 with compound 21 was mediated by VHL.

[2] = tested on: 300 suspension and hematopoietic cancer cell lines; test: PRISM pooled cytotoxicity assay; type: cell-based
PLK1 = PLK1 (Homo sapiens, UniProt P53350); test: Z′-LYTE kinase activity assay for PLK1; type: biochemical; set-up: purchased Life Technologies (Invitrogen) commercial assay service; conditions: Km ATP, average of two replicates ± SD
Chain of PLK1 (P53350 whole entry): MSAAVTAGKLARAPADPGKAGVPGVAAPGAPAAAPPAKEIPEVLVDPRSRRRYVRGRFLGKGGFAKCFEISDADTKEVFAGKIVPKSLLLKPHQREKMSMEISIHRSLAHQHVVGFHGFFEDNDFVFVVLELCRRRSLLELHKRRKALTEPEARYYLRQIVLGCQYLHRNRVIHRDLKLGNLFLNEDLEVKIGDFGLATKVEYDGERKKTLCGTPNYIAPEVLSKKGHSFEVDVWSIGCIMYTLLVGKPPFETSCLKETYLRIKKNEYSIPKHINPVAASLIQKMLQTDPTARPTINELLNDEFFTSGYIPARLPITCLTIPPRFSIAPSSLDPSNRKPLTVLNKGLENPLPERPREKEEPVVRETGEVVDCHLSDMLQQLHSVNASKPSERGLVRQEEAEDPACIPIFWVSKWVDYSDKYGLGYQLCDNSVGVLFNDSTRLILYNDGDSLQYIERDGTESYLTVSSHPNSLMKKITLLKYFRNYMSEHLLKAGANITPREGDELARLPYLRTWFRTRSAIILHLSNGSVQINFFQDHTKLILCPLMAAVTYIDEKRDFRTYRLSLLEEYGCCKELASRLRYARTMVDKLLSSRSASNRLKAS
Protocol: LanthaScreen™ assays were conducted for Wee1 in a 10-point dose response as performed in the commercial assay service by Life Technologies™. Z′-LYTE™ assays were conducted for PLK1 as performed in the commercial assay service by Life Technologies™ in a 10-point dose response using Km ATP concentrations.
The selectivity of Wee1 degradation was then assessed by performing multiplexed mass spectrometry (MS)-based proteomics in MOLT4 cells treated with 100 nM of compound 13 for 2 hours (Donovan et al., Elife 7:e38430 (2018)).

Wee1 = Wee1 (Homo sapiens, UniProt P30291); test: Wee1 degradation immunoblot in MOLT4 cells, 5-hr dose response and time course; type: cell-based; set-up: endogenous in cells; host or cells: MOLT4 (wild type; CRBN-/- as control); conditions: for Wee1 degradation: 5-hr exposure, 100 nM-10 μM
Chain of Wee1 (P30291 whole entry): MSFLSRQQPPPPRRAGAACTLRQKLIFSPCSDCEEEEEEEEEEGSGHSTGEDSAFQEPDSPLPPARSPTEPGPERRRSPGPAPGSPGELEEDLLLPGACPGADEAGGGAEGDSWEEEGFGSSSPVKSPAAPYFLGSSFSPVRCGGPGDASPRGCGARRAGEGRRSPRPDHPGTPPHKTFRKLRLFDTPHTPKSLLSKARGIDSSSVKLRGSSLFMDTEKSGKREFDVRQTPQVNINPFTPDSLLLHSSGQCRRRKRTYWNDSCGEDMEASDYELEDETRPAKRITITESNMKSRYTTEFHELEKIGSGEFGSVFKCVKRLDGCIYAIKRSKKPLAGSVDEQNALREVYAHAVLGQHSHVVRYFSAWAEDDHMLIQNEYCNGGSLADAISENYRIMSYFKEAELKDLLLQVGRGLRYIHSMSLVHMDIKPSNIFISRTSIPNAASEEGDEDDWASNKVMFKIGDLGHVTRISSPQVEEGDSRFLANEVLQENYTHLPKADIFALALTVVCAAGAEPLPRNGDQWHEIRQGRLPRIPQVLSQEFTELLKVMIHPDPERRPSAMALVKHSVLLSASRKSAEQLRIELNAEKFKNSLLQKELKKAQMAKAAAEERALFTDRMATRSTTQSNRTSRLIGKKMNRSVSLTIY
Protocol: Whole cell lysates for immunoblotting were prepared by pelleting cells from each cell line at 4° C. (300 g) for 5 minutes. The resulting cell pellets were washed 1× with ice-cold PBS and then resuspended in RIPA lysis buffer (Sigma, cat #R0278) supplemented with protease and phosphatase inhibitor tablets (Roche cat #4906845001). Lysates were clarified at 14,000 rpm for 15 minutes at 4° C. prior to quantification by BCA assay (Pierce™, cat #23225). Whole cell lysates were loaded into Bolt 4-12% Bis-Tris Gels (Thermo Fisher, cat #NW04120BOX) and separated by electrophoreses at 95 V for 1.5 hours. The gels were transferred to a nitrocellulose membrane using the iBlot® Gel Transfer at P3 for 7 minutes (Thermo Fisher, cat #IB23001) and then blocked for 1 hour at room temperature in Odyssey® blocking buffer (LICOR® Biosciences, cat #927-50010). Membranes were probed using antibodies against the relevant proteins at 4° C. overnight in 20% Odyssey® Blocking Buffer in 1×TBST. Membranes were then washed three times with 1×TBST (at least 5 minutes per wash) followed by incubation with the IRDye® goat anti-mouse (LICOR®, cat #926-32210) or goat anti-rabbit (LICOR®, cat #926-32211) secondary antibody (diluted 1:10,000) in 20% Odyssey® Blocking Buffer in 1×TBST for 1 hour at room temperature. After three washes with 1×TBST (at least 5 minutes per wash), the immunoblots were visualized using the ODYSSEY® Infrared Imaging System (LICOR®).
MOLT4 cells were plated at 1.5 million cells per well in a 6-well plate, with 3 mL of media per well. Cells were then immediately treated with the indicated concentration of the indicated compound and incubated for the indicated amount of time. Cells were collected by transferring each well to a 15 mL conical, centrifuging (1000 rpm for 3 min), then washing the cell pellet 2× with cold PBS. Each cell pellet was then lysed in 100 μL of RIPA lysis buffer (+protease/phosphatase inhibitors). Samples were normalized and prepped in 4×LDS+10% β-mercaptoethanol and boiled for 5 min at 95° C. Lysates were probed for specified proteins by western blotting using the Bolt® system (Life Technologies™)
To confirm that compound 13-mediated Wee1 degradation is CRBN dependent (FIG. 1D), Wee1 degradation profiles in parental versus CRBN^−/− MOLT4 cells were compared. In parental MOLT4 cells, compound 13 induced potent Wee1 degradation after 5 hours, with maximal degradation observed at 100 nM and a “hook effect” apparent at the top concentration of 10 μM, where compound 13:CRBN and compound 13-Wee1 binary complexes inhibit the formation of a productive ternary complex (Toure and Crews, Angew. Chem. 55:1966-1973 (2016)).
To evaluate the kinetics of Wee1 degradation, a time course study was performed in MOLT4 cells using 100 nM compound 13. Degradation occurred rapidly, with over 50% degradation achieved within 30 min, and complete degradation reached by 3 hr (FIG. 4C).

[3] = 100 nM, MOLT4 cells, time course

C=CCn1c(=O)c2cnc(Nc3ccc(N4CCN(CCCNc5cccc6c5C(=O)N(C5CCC(=O)NC5=O)C6=O)CC4)cc3)nc2n1-c1cccc(C(C)(C)O)n1 (stereo not drawn) [Compound 13, 4-((3-(4-(4-((2-allyl-1-(6-(2-hydroxypropan-2-yl)pyridin-2-yl)-3-oxo-2,3-dihydro-1H-pyrazolo[3,4-d]pyrimidin-6-yl)amino)phenyl)piperazin-1-yl)propyl)amino)-2-(2,6-dioxopiperidin-3-yl)isoindoline-1,3-dione]
IC50 [1]: 390 nM
IC50 ([2]; almost all of the lines tested, data not shown, read-out: IC50 values in PRISM panel): < 1000 nM
IC50 (PLK1): 102 nM
Time to complete Wee1 degradation (Wee1; 100 nM, MOLT4 cells): ≤ 3 h
Wee1 degradation achieved within 30 min (Wee1; [3]): over 50%
Effect on Wee1 abundance in CRBN−/− cells (Wee1; CRBN−/− MOLT4 cells, 5 hours): no effect on Wee1 abundance
Wee1 degradation (Wee1; MOLT4 cells): degraded Wee1
Concentration giving maximal (sufficient) Wee1 degradation (Wee1; MOLT4 cells, 5-hr treatment): 100 nM
Concentration at which hook effect is apparent (Wee1; parental MOLT4 cells, 5 hours): 10 µM
Duration of sustained loss of Wee1 (Wee1; single 100 nM treatment, MOLT4 cells): at least 48 hrs

C=CCn1c(=O)c2cnc(Nc3ccc(N4CCN(CCCNc5cccc6c5C(=O)N(C5CCC(=O)N(C)C5=O)C6=O)CC4)cc3)nc2n1-c1cccc(C(C)(C)O)n1 (stereo not drawn) [Compound 20, 4-((3-(4-(4-((2-allyl-1-(6-(2-hydroxypropan-2-yl)pyridin-2-yl)-3-oxo-2,3-dihydro-1H-pyrazolo[3,4-d]pyrimidin-6-yl)amino)phenyl)piperazin-1-yl)propyl)amino)-2-(1-methyl-2,6-dioxopiperidin-3-yl)isoindoline-1,3-dione]
IC50 [1]: 4560 nM
Potency in PRISM panel relative to compound 13 [2]: uniformly less potent
IC50 (PLK1): 43 ± 4 nM
Effect on Wee1 protein levels over time (Wee1; [3]): no effect on Wee1 protein levels
Wee1 degradation (Wee1; MOLT4 cells): did not degrade Wee1
